According to US6605639B1, “Ligands of nuclear receptor” (Nuclear Receptor Research, Ltd., priority 1998, dated 2003):

What was measured:
RAR = target: T1, RAR (Homo sapiens, UniProt P10276); test: RAR reporter gene (luciferase) transfer assay in COS-1 cells; assay type: cell-based; details: control lot = 1
T1 construct: expressed in transfected cells; host or cells: COS-1 cells
T1 sequence (P10276 1-462): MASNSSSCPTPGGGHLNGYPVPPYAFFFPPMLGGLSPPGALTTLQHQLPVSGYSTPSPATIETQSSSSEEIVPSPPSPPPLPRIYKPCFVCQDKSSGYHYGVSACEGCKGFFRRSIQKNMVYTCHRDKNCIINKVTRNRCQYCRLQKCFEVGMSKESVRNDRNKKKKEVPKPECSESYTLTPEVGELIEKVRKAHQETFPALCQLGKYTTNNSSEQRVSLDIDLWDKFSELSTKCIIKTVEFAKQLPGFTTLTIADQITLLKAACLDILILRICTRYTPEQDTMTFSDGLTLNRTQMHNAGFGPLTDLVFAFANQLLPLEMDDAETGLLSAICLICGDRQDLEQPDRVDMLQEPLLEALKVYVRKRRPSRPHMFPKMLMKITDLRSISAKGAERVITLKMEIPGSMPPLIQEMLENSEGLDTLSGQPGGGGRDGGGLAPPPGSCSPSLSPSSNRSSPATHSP
Text: Each value means the degree of increase in the luciferase activity, which is expressed by referring the luciferase activity in the control lot as to 1, caused by the addition of the corresponding compound.
As a substitute for a plasmid containing a luciferase gene under the regulation in expression by RXR response element (pRXRL:RXRE-SV40 luciferase), and the RXRα expression plasmid (pRXRα); a plasmid containing a luciferase gene under the regulation in expression by RXR response element (pRARL:RASE-SV40 luciferase), and a […] (pRARα) were transferred into COS-1 cells. Transfectants with these plasmids and the compound of the present invention (concentration: 10^−4 to 10^−7 M) were added to the culture.
(§1) After sucking off the medium from the Petri dish, […] of a cultured cell lysing solution (25 mM Tris phosphate buffer (pH 7.8), 2 mM 1,2-diaminocyclohexane-N, N,N′,N′-tetraacetate, 10% glycerol, 1% Triton X-100) was added and the cells were peeled off with a rubber policeman and collected. After completely disrupting the cells by freezing and melting, the cells were centrifuged at 4° C. (15,000 rpm, 2 min) and the supernatant thus obtained was employed as a sample for measurement. To 20 ml of the supernatant, 100 ml of a luciferase substrate solution (2.14 mg of Co-A, 100 ml of 470 mM D-Luciferin, 200 ml of 530 mM ATP, 2 ml of DTT-Tricine buffer (pH 7.8)) was added and the fluorescence intensity was measured with a luminometer (ATTO Luminosensor AB-2000). To measure the β-galactosidase for determining the gene transfer efficiency, using a Luminescent β-galactosidase detection kit II (Clontech), fluorescence intensity was measured by a luminometer.

male Wistar rats [1] = test: Oral administration of Compound-5 to rats: toxicity and Compound-1 in the blood
Method: Male Wistar rats (n=4) weighing about 200 g were employed and the concentration of Compound-1 contained in the serum was expressed in mean±SE (FIG. 9).
In FIG. 9, open circles show a case wherein Compound-5 was solubilized with HCO-60 and orally administered in a dose of 2 mg/kg.
Solid circles show a case wherein Compound-5 was suspended in an acacia solution and orally administered in a dose of 20 mg/kg. Per part of the serum collected with the passage of time, ethanol containing 1% of acetic acid was added and the mixture was allowed to stand in the dark at room temperature for 7 days. Then Compound-1 was determined by high performance liquid chromatography.
Open squares show a case wherein Compound-5 was suspended in an acacia solution and orally administered. Then the blood was collected at definite points and Compound-1 was determined by high performance liquid chromatography immediately thereafter. […] Separately, Compound-5 suspended in an acacia solution was orally administered to rats having been cannulated into the portal vein. Then the portal blood was collected with the passage of time and Compound-1 was determined.

male ICR and ddY mice = test: Serum total cholesterol lowering effect in mice; assay type: in vivo, mouse; details: 8 days; for Serum total cholesterol, % change: vs control; for Serum total cholesterol: Mean±SE
Text: Effect of serum cholesterol lowering agents varies among animals. Namely, some agents which are effective on a certain animal exert […] on others. For example, compactin, which is an HMG CoA reductase inhibitor, cannot lower the serum total cholesterol level when administered to rodents such as rat or mouse. This is because even though HMG CoA reductase is inhibited in the rodent liver, the enzyme is biosynthesized in an amount in excess of that for compensating the inhibition so that the inhibitory effect is negated. Accordingly, it is favorable to calibrate the effect of lowering serum total cholesterol level in as many animals as possible. Concerning the effect of the compounds of the present invention on the serum total cholesterol level, an assay was made with the use of mice. After adding these compounds to a standard powdery feed for rat and mouse, the resultant mixtures were molded into pellets and given for 8 days to male ICR and ddY mice aged 5 weeks. In the afternoon of the day 8, the blood of each animal was collected from the heart and the total cholesterol in the serum was determined. The doses were determined as the maximum dose, in which body weight gain was not suppressed after orally administering for 1 week, and as the ¼ dose thereof.
Each value is represented in Mean±SE (n=10). a) In the case of Compound-1, the control group consisted of 23 animals while the 0.04% and 0.01% groups each consisted of 12 animals.

[2] = system: rats given streptozotocin; test: Relief of onset of streptozotocin-induced diabetes; assay type: in vivo, rat; details: male SD rats, streptozotocin 50 mg/kg i.v.; 10 mg/kg/day oral, 14 days from 24 hours after; Mean ± SE
Method: Eighteen male Wistar rats weighing about 200 g were divided into 3 groups at random. To the animals of 2 groups, 45 mg/kg of streptozotocin was intravenously administered. One of these groups was regarded as a control group, while the other was regarded as the Compound-6 administration group. To the remaining 1 group which was regarded as the normal control group, a 1/10 M citrate buffer (pH 3.5) […] was intravenously administered. Immediately after the administration of streptozotocin, a suspension of Compound-6 in acacia was orally administered once a day continuously for 10 days in a dose of 20 mg/kg/day. To other groups, an acacia solution alone was administered. After fasting for 6 hours after the final administration, blood was collected from the heart of each animal and the blood glucose level and the blood insulin level were measured. As the data given in Table 7a show, the oral administration of Compound-6 inhibited an increase in the blood glucose level and a decrease in the blood insulin level.
Eighteen male SD rats weighing about 250 g were divided into 3 groups at random. […] To the normal control group and the streptozotocin control group, the acacia solution alone was administered orally. After fasting for 6 hours after the final administration, blood was collected from the heart of each animal and the blood glucose level and the blood insulin level were measured. As the data given in Table 7b show, the oral administration of Compound-5 inhibited an increase in the blood glucose level and a decrease in the blood insulin level.

human RXRα = target: T2, human RXRα (Homo sapiens, UniProt P19793); test: RXR reporter gene (luciferase) transfer assay in COS-1 cells; assay type: cell-based; details: 2 × 10^−5 M
T2 construct: expressed in transfected cells; host or cells: COS-1 cells
T2 sequence (P19793 1-462): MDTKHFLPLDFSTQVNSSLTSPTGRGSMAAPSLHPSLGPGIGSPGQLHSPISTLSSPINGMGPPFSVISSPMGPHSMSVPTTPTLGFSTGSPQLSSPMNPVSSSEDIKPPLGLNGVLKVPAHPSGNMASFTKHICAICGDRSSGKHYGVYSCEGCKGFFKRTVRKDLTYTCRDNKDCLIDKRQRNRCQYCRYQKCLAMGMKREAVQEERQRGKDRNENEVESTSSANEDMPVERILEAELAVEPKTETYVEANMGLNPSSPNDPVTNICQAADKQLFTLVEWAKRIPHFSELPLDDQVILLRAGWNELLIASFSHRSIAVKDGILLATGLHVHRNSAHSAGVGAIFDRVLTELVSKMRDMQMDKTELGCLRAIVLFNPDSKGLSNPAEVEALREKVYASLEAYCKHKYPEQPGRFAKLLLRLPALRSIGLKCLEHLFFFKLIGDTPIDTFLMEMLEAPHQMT
Method: A plasmid containing a reporter gene regulated in expression by RXR response element and an RXRα expression plasmid were transferred into COS-1 cells. Then these cells were treated with the compounds of the present invention such as ascochlorin.
Plasmids were transferred into COS-1 cells. Gene transfer was carried out in a conventional manner with the use of Lipofect AMINE reagent (Life Technologies). 1×10^5 cells were dispersed in 2 ml of Dulbecco's modified Eagle medium (DMEM) containing 10% of fetal calf serum and poured into a 35 mm Petri dish. After culturing in a CO2 incubator for 17 hours, the medium was removed and the cells adhering to the Petri dish were washed with phosphate-buffered saline (PBS). Then gene transfer was carried out by using Lipofect AMINE reagent. Namely, 500 ml of a minimum serum medium OptiMEM (Life Technologies) containing […] of a plasmid containing a luciferase gene under the regulation in expression by RXR response element (PRXRL: RXRE-SV40 luciferase; a reporter gene plasmid wherein RXRE has been ligated to SV40 promoter and luciferase cDNA, under the regulation in expression thereby, has been located downstream thereof); […] of an RXRα expression plasmid (pRXRα; a plasmid wherein human RXRα CDNA has been ligated to the downstream of a cytomegalovirus promoter to express human RXRα in mammalian cells); and 2 mg of a β-galactosidase gene plasmid to assess the gene transfer ratio (pCH110; Pharmacia) were pre-mixed with 500 ml of OptiMEM containing 50 ml of Lipofec AMINE, and the resultant mixture was maintained at room temperature for 15 minutes. 100 ml of this liquid mixture was mixed with 400 ml of OptiMEM, and the medium mixture was divided to the Petri dish. After maintaining in a CO2 incubator at 37° C. for 3 hours, the gene transfer medium was sucked off from the Petri dish and DMEM medium containing a test substance and 10% of serum (activated carbon-treated) was added thereto followed by culturing at 37° C. for 20 hours. […] Further, dimethyl sulfoxide (final concentration: 0.1%) was added as the solvent for the test substance.
as §1

[3] = system: hereditary obese diabetic mice ob/ob and db/db; details: oral; cited from earlier work
white rabbits = test: Inhibition of arteriosclerosis in white rabbits fed high fat feed; details: 0.2% in high fat feed, 14 weeks
Method: Thus, a high fat feed was prepared by adding 10% of hardened coconut oil, 2% of cholesterol, 0.5% of bovine bile powder and 0.04% or 0.01% of ascochlorin to a powdery marketed standard white rabbit feed and molded the mixture into pellets. Separately, another high fat feed for the control group was prepared without using ascochlorin.
Twenty-four white rabbits weighing about 2 kg were divided into 4 groups at random. One of these groups was regarded as the control group, while the remaining 3 groups were respectively regarded as the clofibrate group, the ascochlorin 0.01% group and the ascochlorin 0.04% group at random. Then the experiment was carried out for 14 weeks.

male Wistar rats [4] = test: Sterol balance and bile acid excretion in rats; assay type: in vivo, rat; details: High cholesterol feed
Method: Feed-origin cholesterol and neutral sterol and acidic sterol in the feces of rats, to which the compounds of the present invention had been administered, were determined to monitor sterol balance and changes in the bile acid composition in feces. […] Further, the bile was sampled with the passage of time from rats having been subjected to cholangiostomy and bile acids thereof were determined. […] Male Wistar rats weighting about 250 g were divided into groups each having 6 to 8 animals. […] […] The feces were collected on the days 6 and 10. Then sterols were extracted therefrom in a conventional manner, acidic sterols and neutral sterols were determined. On the other hand, cholesterol in the feed was also determined so as to calculate the amount of feed-origin sterol.

SMILES: CC1=C(/C=C/C(C)=C/C=C/C(C)=C/C(=O)O)C(C)(C)CCC1 [All-trans retinoic acid, reference compound]
- degree of increase in the luciferase activity, RAR vector (RAR; 10^−7 M): 46

SMILES: CC(=O)Oc1c(Cl)c(C)c(C=O)c(O)c1CC=C(C)C=CC1(C)C(C)CCC(=O)C1C (centres unmarked) [Compound-5, acetylASC]
- time within which all of the rats died following administration (male Wistar rats [1]; 2 mg/kg oral, solubilized with HCO-60, n=4): ≤ 1 h
- lethality (male Wistar rats [1]; rat, suspended in a 2% acacia solution, 200 mg/kg): not killed
- free Compound-1 in the blood after administration of Compound-5 (male Wistar rats [1]; suspended in acacia solution, oral, determined immediately by HPLC): no free Compound-1 was detected
- Serum total cholesterol, % change (male ICR and ddY mice; 0.01% in feed): −13%
- Serum total cholesterol (male ICR and ddY mice; 0.01% in feed): 132 ± 6.1 mg/dL
- Serum total cholesterol, % change (male ICR and ddY mice; 0.04% in feed): −27%
- Serum total cholesterol (male ICR and ddY mice; 0.04% in feed): 117 ± 3.3 mg/dL
- Blood glucose [2]: 237.2 ± 26.31 mg/dL
- Serum IRI [2]: 15.5 ± 2.16 mU/ml

SMILES: COc1c(C=O)c(C)c(Cl)c(O)c1CC=C(C)C=CC1(C)C(C)CCC(=O)C1C (centres unmarked) [Compound-10, 2-O-methylASC]
- fold increase in luciferase reporter activity (control = 1) (human RXRα): 1.45
- degree of increase in the luciferase activity, RXR vector (human RXRα; control lot = 1): 58
- Serum total cholesterol, % change (male ICR and ddY mice; 0.01% in feed): −30%
- Serum total cholesterol (male ICR and ddY mice; 0.01% in feed): 130 ± 4.5 mg/dL
- Serum total cholesterol, % change (male ICR and ddY mice; 0.04% in feed): −34%
- Serum total cholesterol (male ICR and ddY mice; 0.04% in feed): 122 ± 3.0 mg/dL
- degree of increase in the luciferase activity, RAR vector (RAR; 2 × 10^−5 M): 40

SMILES: Cc1cc2c(cc1C1(c3ccc(C(=O)O)cn3)CC1)C(C)(C)CCC2(C)C [LG100268]
- blood glucose levels, serum neutral fat levels and serum insulin levels [3]: drastically lower

SMILES: CCOC(=O)C(C)(C)Oc1ccc(Cl)cc1 [clofibrate, reference compound]
- animals died from circulatory insufficiency due to obstruction in the coronary artery (white rabbits): 2 animals among six

SMILES: COc1c(Cl)c(C)c(C=O)c(OC)c1CC=C(C)C=CC1(C)C(C)CCC(=O)C1C (centres unmarked) [compound 7, 2,4-dimethylASC]
- Serum total cholesterol, % change (male ICR and ddY mice; 0.04% in feed): −31%
- Serum total cholesterol (male ICR and ddY mice; 0.04% in feed): 120 ± 5.9 mg/dL

SMILES: CC(/C=C/C1(C)C(C)CCC(=O)C1C)=C\Cc1c(O)c(C=O)c(C)c(Cl)c1OCCCC(=O)O (centres unmarked) [compound 16]
- Sterol balance (male Wistar rats [4]; administration 5 days): +15.12 mg/day
- Sterol in feces, Acidic sterol (male Wistar rats [4]; administration 5 days): 8.67 mg/day
- Sterol in feces, Cholesterol (male Wistar rats [4]; administration 5 days): 246.30 mg/day
- Sterol in feces, Coprosterol (male Wistar rats [4]; administration 5 days): 41.05 mg/day
- excretion increase (male Wistar rats [4]; administration 5 days): 8.95 mg/day
- Sterol balance (male Wistar rats [4]; administration 10 days): +28.52 mg/day
- Sterol in feces, Acidic sterol (male Wistar rats [4]; administration 10 days): 9.93 mg/day
- Sterol in feces, Cholesterol (male Wistar rats [4]; administration 10 days): 233.08 mg/day
- Sterol in feces, Coprosterol (male Wistar rats [4]; administration 10 days): 58.27 mg/day
- excretion increase (male Wistar rats [4]; administration 10 days): 34.07 mg/day

SMILES: CC(/C=C/[C@@]1(C)[C@H](C)CCC(=O)[C@@H]1C)=C\Cc1c(O)c(C=O)c(C)c(Cl)c1OC(=O)c1cccnc1 [compound 19, 4-O-nicotinoylASC]
- Serum total cholesterol, % change (male ICR and ddY mice; 0.01% in feed): −13%
- Serum total cholesterol (male ICR and ddY mice; 0.01% in feed): 91 ± 4.5 mg/dL
- Serum total cholesterol, % change (male ICR and ddY mice; 0.04% in feed): −16%
- Serum total cholesterol (male ICR and ddY mice; 0.04% in feed): 88 ± 3.0 mg/dL
